Patent publication US20170266292A1, “LIPIDIC COMPOUND-TELODENDRIMER HYBRID NANOPARTICLES AND METHODS OF MAKING AND USES THEREOF” (The Research Foundation for The State University of New York, priority 2016, published 2017)

What was measured:
U87 cells [1] = experiment: MTS cell viability assay on U87 cells; type: cell-based, human; conditions: 72 h continuous incubation
Experimental: Cell Culture and MTS Assays. The human glioblastoma multiforme (GBM) cell lines U87 and LN229, as well as the colon cancer cell line HT-29 cell line were purchased from American Type Culture Collection (ATCC, Manassas, Va., U.S.A.). U138 cell line established from human patients diagnosed with GBM. All cells were cultured in McCoy's 5 A medium supplemented with 10% fetal bovine serum (FBS), 100 U/mL penicillin G, and […] streptomycin at 37° C. using a humidified 5% CO2 incubator. Various formulations of proteins with different dilutions were added to the plate and then incubated in a humidified 37° C., 5% CO2 incubator. After a 72 h continuous incubation, a mixture solution composed of CellTiter 96 AQueous MTS, and an electron coupling reagent, PMS, was added to each well according to the manufacturer's instructions. The cell viability was determined by measuring absorbance at 490 nm using a microplate reader (BioTek Synergy 2). Untreated cells served as the control. Results were shown as the average cell viability [100%×(ODtreat−ODblank)/(ODcontrol−ODblank)] of triplicate wells. The cells were also treated with blank nanoparticles in PBS (1×) and blank lipidoids in a mixture of cremophor/ethanol (v:v=1:1) with different dilutions and incubated for a total of 72 h to evaluate nanoparticle-related toxicity.

[2] = Zeta potential of lipidoid-telodendrimer hybrid NPs; type: physicochemical; conditions: lipidoid alone
Experimental: (§1) Formulation of Lipidoid-Telodendrimer Nanoparticles. Nanoparticles were formed by mixing lipidoids and/or telodendrimers at required mass ratios in a solution of 90% ethanol and 10% 10 mM sodium citrate (by volume). Particle solutions were diluted with 10 times volume of phosphate buffered saline (PBS, 1×), and dialyzed against PBS (1×) for 4 h. The particle solution was then mixed with proteins at a ratio of 1/10 (protein/nanoparticle, w/w) to form nanoparticle-protein complex. The complex solution was then stored in sealed vessels at 4° C. for 1 day before use. For Mcl-1 inhibitor-loaded nanoparticle preparation, the Mcl-1 inhibitor, lipidoids and telodendrimers were in a solution of 90% ethanol and 10% 10 mM sodium citrate (by volume). Particle solutions were diluted with 10 times volume of PBS, yielding Mcl-1 inhibitor-loaded lipidoid-telodendrimer nanoparticles.
(§2) Characterization. Proton NMR spectrum was recorded on a Bruker AVANCE 600 MHz spectrometer. MALDI-TOF mass spectrum was recorded on a Bruker REFLEX-III instrument. Dynamic light scattering (DLS) studies were performed using a Zetatrac (Microtrac Inc.) instrument, and the area-based mean particle sizes were presented. Zeta potential measurements were carried out on a Malvern Nano-ZS zetasizer at room temperature. […] UV-vis spectra were recorded on a Thermo Scientific Nanodrop 2000c spectrophotometer.

[3] = DLS hydrodynamic diameter of lipidoid-telodendrimer hybrid NPs; type: physicochemical; conditions: lipidoid alone
Experimental: as §1, §2

[4] = Protein release from agarose gels (0.6% wt); type: physicochemical; conditions: FITC-BSA from agarose gels (0.6% wt) immersed in PBS
Experimental: Protein Release from Agarose Gels. Free FITC-BSA and FITC-BSA-incorporated lipidoid-telodendrimer hybrid nanoparticles (1/10, FITC-BSA/nanoparticle, w/w) were loaded in agarose gels of a concentration of 0.6% wt. The sample-loaded agarose gels were immersed in PBS (1×) with shaking for protein release assays. The concentration of released FITC-BSA at various time points was measured by fluorescence spectroscopy employing a pre-established calibration equation. The release medium was replaced with fresh medium. The accumulated protein release was reported as the means for each triplicate sample.

HT-29 cells = experiment: Cellular uptake of protein-incorporated nanoparticles, HT-29 cells; type: cell-based, human; conditions: 2 h at 37° C., FITC approx. 1 μg/mL
Experimental: (§3) Cellular Uptake of Protein-Incorporated Nanoparticles. The cellular uptake and intracellular trafficking of the protein-incorporated nanoparticles were determined by fluorescence microscopy. FITC-BSA was used as a model protein. HT-29 and U87 cells were seeded in chamber slide with a density of 5×10^4 cells per well in 350 μL of McCoy's 5 A and cultured for 24 h. The original medium was replaced with free FITC-BSA and FITC-BSA-loaded nanoparticles at final FITC a concentration of 1 or 3 μg/mL at 37° C. After a 2 h incubation, the cells were washed three times with cold PBS (1×) and fixed with 4% formaldehyde for 10 min at room temperature, and the cell nuclei were stained with DAPI. The slides were mounted with cover slips and cells were imaged with a Leica fluorescence microscope or a Nikon FV1000 laser scanning confocal scanning microscope. The mean fluorescence density in cells (unit: pixel^−1) was calculated using the following equation: […]

U87 cells [5] = experiment: Cellular uptake of protein-incorporated nanoparticles, U87 cells; type: cell-based, human; conditions: 2 h at 37° C.
Experimental: as §3

[6] = test system: orthotopic human U87 GBM tumors; experiment: Intracranial distribution of proteins after CED; type: in vivo, mouse; conditions: one day after CED; protein/NP 1/10; confocal microscopy
Experimental: Intracranial Orthotopic GBM Tumor Model. Female athymic nude mice (NCRNU-Sp/Sp), 6-7 weeks age, were purchased from Taconic Biosciences (Germantown, N.Y.). All animals were kept under pathogen-free conditions according to Association for Assessment and Accreditation of Laboratory Animal Care (AAALAC) guidelines and were allowed to acclimatize for at least 4 days prior to any experiments. All animal experiments were performed in compliance with institutional guidelines and according to protocol approved by the Committee for the Humane Use of Animals of State University of New York Upstate Medical University. Athymic nude mice were anesthetized with ketamine/xylazine (80 mg/kg: 5 mg/kg) through an intraperitoneal injection. The mice were then placed in a stereotactic head frame. Using aseptic technique, a midline skin incision was made a 0.5 mm anterior to bregma and 2.5 mm lateral of midline, a burr hole will be placed. A 25G needle delivered U87 (GBM) tumor cells 3.2 mm deep via the stereotactic head frame. Approximately 5×10^4 cells (in 1 μL of PBS) will be injected. This injection will occur over the course of 5 minutes. […]
CED Administration of Protein Formulations. […] For bioluminescence image analysis, the associated bioluminescence intensities were determined by Living Image software (Caliper Life Sciences) using operator-defined regions of interest (ROI) measurements.

Q: With `CCCCCCCCCCCCCCC(O)CN(C)CCCN(C)CC(O)CCCCCCCCCCCCCC` (centres unmarked) [lipidoid, 1,1′-(propane-1,3-diylbis(methylazanediyl))bis(hexadecan-2-ol)] as the molecule, how does the “cytotoxicity of blank nanoparticles / lipidoid” value (U87 cells [1]) read?
A: toxicity was observed

Q: What about the “ζ-potential of lipidoid NPs” value [2] of the same molecule?
A: +8 mV

Q: What about the “particle size of lipidoid NPs” value [3] of the same molecule?
A: ~129 nm

Q: With “free FITC-BSA: fluorescein isothiocyanate (FITC) labeled BSA, model protein” as the molecule, how does the “time within which ~50% of the proteins released” value [4] read?
A: ≤ 2 h

Q: And the “cellular uptake efficiency (semi-quantitative, mean fluorescence intensity)” value (HT-29 cells)?
A: closes to zero

Q: And the “cellular uptake efficiency (semi-quantitative, mean fluorescence intensity)” value (U87 cells [5]; FITC approx. 1 μg/mL)?
A: closes to zero

Q: What about the “cellular uptake (confocal laser fluorescence microscopy)” value (U87 cells [5]; FITC approx. 3 μg/mL) of the same molecule?
A: very low

Q: Which “distribution in brain sections containing U87 tumors (fluorescence)” value [6] does the source give for “free Cy5-BSA: near-infrared fluorescence dye-labeled BSA (Cy5-BSA), model protein” here?
A: no obvious fluorescent signals
